US20210322462A1, “WOUND PREVENTION AND/OR TREATMENT AND RELATED COMPOUNDS, MATRICES, COMPOSITIONS, METHODS AND SYSTEMS” (CALIFORNIA INSTITUTE OF TECHNOLOGY, priority 2020, published 2021)

How the values were obtained:
[1] = test system: Pseudomonas aeruginosa ΔnarGHJI; test: Chlorate sensitivity assay and chlorate quantification, ΔnarGHJI versus wild type; assay type: cell-based; conditions: 1 mM chlorate, 72 hours
Experimental: (§1) Chlorate sensitivity assay was then performed. In particular, to test mutants for chlorate sensitivity, overnight cultures of each strain were grown aerobically in LB with 40 mM KNO3. Cultures were pelleted, washed twice with LB to remove residual KNO3, and resuspended in LB without (control) or with 1 mM NaClO3 to final OD500=1. Cultures were moved to the anaerobic glove box to adapt to anoxia.
Cultures were incubated at 37° C. for 72 hours, after which they were removed from the anaerobic glove box to determine viable cell counts for calculating percent survival as described previously) (Spero and Newman 2018).). At 72 hours, part of the culture was also pelleted, and supernatant collected for quantifying chlorate concentrations via ion chromatography.
(§2) Chlorate quantification was then performed via ion chromatography. In particular, culture samples were pelleted, and the supernatant was diluted 1:10 in dH2O in a 0.5 mL vial (Thermo Fisher Scientific catalog numbers 038010 and 038011). Chlorate concentrations were determined using a Dionex ICS 2000 ion chromatography as described previously (Spero and Newman 2018).) at the Environmental Analysis Center at Caltech.

[2] = test system: Pseudomonas aeruginosa ΔhflC; test: Chlorate sensitivity assay and chlorate quantification, ΔhflC versus wild type; assay type: cell-based; conditions: 1 mM chlorate
Experimental: as §1
[…] At 72 hours, part of the culture was also pelleted, and supernatant collected for quantifying chlorate concentrations via ion chromatography.
as §2

[O-][Cl+2]([O-])O [chlorate, NaClO3]
chlorate resistance (% survival) relative to WT ([1]; anaerobic, 37° C. (FIG. 2A)): more resistant to chlorate than WT | Nar activity, chlorate reduction (% chlorate remaining) relative to WT ([1]; ion chromatography (FIG. 2B)): lower rates of chlorate reduction | chlorate resistance (% survival) relative to WT ([2]; over the course of 48 hours (FIG. 3A)): more resistant to chlorate than WT | Nar activity, chlorate reduction (% chlorate remaining) relative to WT ([2]; over the course of 48 hours (FIG. 3B)): lower rates of chlorate reduction
